From patent US11596639B2, “Substituted indole Mcl-1 inhibitors” (Vanderbilt University, priority 2016, dated 2023)
Like-named read-outs stand apart in the source and are kept apart here.

Experiments:
[1] = system: H929 human cancer cell lines; assay: Cellular viability / proliferation (Cell TiterGlo, 72 h); assay type: cell-based
Method in brief: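 1,000 cells/well, 10% FBS medium; compound added at 24 h, 2-fold dilutions from 50 μM top, DMSO <1% final. 72 h exposure, CellTiterGlo 30 min RT dark, luminescence read. IC50 by 4-parameter fit.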

Mcl-1 = Mcl-1 (Homo sapiens (Human), UniProt Q07820); assay: Fluorescence polarization anisotropy (FPA) competition assay, FITC-Bak or FITC-Bim BH3 peptide; assay type: binding; settings: read-out: Ki for Inhibition of Mcl-1 by FPA assay
[2] = Homo sapiens, NCI-H929, 72 h, read-out: GI50 on cellular proliferation of H929 human cancer cell lines, H929 cells, 72 h, Cell TiterGlo, 10% FBS

Sequence of Mcl-1 (Q07820 172-327): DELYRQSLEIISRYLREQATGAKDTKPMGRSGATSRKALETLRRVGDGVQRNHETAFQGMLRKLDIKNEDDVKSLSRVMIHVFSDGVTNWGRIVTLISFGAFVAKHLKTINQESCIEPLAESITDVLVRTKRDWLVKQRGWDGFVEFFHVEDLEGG

Cc1cc(OCCCc2c3n(c4c(-c5c(C)nn(C)c5C)c(Cl)ccc24)[C@H](C)CN(c2cn(C)c4cc(C#N)ccc24)C3=O)cc(C)c1Cl [Example 206, (R)-3-(7-Chloro-10-(3-(4-chloro-3,5-dimethylphenoxy)propyl)-4-methyl-1-oxo-6-(1,3,5-trimethyl-1H-pyrazol-4-yl)-3,4-dihydropyrazino[1,2-a]indol-2(1H)-yl)-1-methyl-1H-indole-6-carbonitrile]
GI50 [1, 2]: 3200 nM | Ki (Mcl-1): < 1 nM

Cc1cc(OCCCc2c3n(c4c(-c5c(C)nn(C)c5C)c(Cl)ccc24)[C@H](C)CN(c2cc(C(=O)O)c4ccccc4c2)C3=O)cc(C)c1Cl [Example 188, (R)-3-(7-Chloro-10-(3-(4-chloro-3,5-dimethylphenoxy)propyl)-4-methyl-1-oxo-6-(1,3,5-trimethyl-1H-pyrazol-4-yl)-3,4-dihydropyrazino[1,2-a]indol-2(1H)-yl)-1-naphthoic acid]
GI50 [1, 2]: 2700 nM | Ki (Mcl-1): 6.4 nM

Cc1cc(OCCCc2c3n(c4c(-c5c(C)nn(C)c5C)c(Cl)ccc24)[C@H](C)CN(c2ccc(OCc4ccccc4)c4c2cc(C(=O)O)n4C)C3=O)cc(C)c1Cl [Example 327, (P, R)-7-(Benzyloxy)-4-(7-chloro-10-(3-(4-chloro-3,5-dimethylphenoxy)propyl)-4-methyl-1-oxo-6-(1,3,5-trimethyl-1H-pyrazol-4-yl)-3,4-dihydropyrazino[1,2-a]indol-2(1H)-yl)-1-methyl-1H-indole-2-carboxylic acid]
GI50 ([1]; H929 cells, 72 h, Cell TiterGlo, 10% FBS, read-out: GI50 on cellular proliferation of H929 human cancer cell lines): 3600 nM | Ki (Mcl-1): 1.6 nM

Cc1cc(OCCCc2c3n(c4c(-c5c(C)nn(C)c5C)c(Cl)ccc24)[C@H](C)CN(c2cn(C)c4ccc(-c5ncccn5)cc24)C3=O)cc(C)c1Cl [Example 394, (R)-7-Chloro-10-(3-(4-chloro-3,5-dimethylphenoxy)propyl)-4-methyl-2-(1-methyl-5-(pyrimidin-2-yl)-1H-indol-3-yl)-6-(1,3,5-trimethyl-1H-pyrazol-4-yl)-3,4-dihydropyrazino[1,2-a]indol-1(2H)-one]
GI50 [1, 2]: 270 nM | Ki (Mcl-1): 2.8 nM

Cc1cc(OCCCc2c3n(c4c(-c5c(C)ncnc5C)c(Cl)ccc24)[C@H](C)CN(c2cccc4c(C(=O)O)cn(C)c24)C3=O)cc(C)c1Cl [Example 168, 7-[(4R)-7-chloro-10-[3-(4-chloro-3,5-dimethyl-phenoxy)propyl]-6-(4,6-dimethylpyrimidin-5-yl)-4-methyl-1-oxo-3,4-dihydropyrazino[1,2-a]indol-2-yl]-1-methyl-indole-3-carboxylic acid]
GI50 [1, 2]: 1000 nM | Ki (Mcl-1): 1.1 nM

Cc1cc(OCCCc2c3n(c4c(-c5c(C)nn(C)c5C)c(Cl)ccc24)[C@H](C)CN(c2cc(C(=O)O)c4cnn(C(C)C)c4c2)C3=O)cc(C)c1Cl [Example 131, 6-[(4R)-7-chloro-10-[3-(4-chloro-3,5-dimethyl-phenoxy)propyl]-4-methyl-1-oxo-6-(1,3,5-trimethylpyrazol-4-yl)-3,4-dihydropyrazino[1,2-a]indol-2-yl]-1-isopropyl-indazole-4-carboxylic acid]
GI50 [1, 2]: 1900 nM | Ki (Mcl-1): < 1 nM

Cc1cc(OCCCc2c3n(c4c(-c5c(C)nn(C)c5C)c(Cl)ccc24)[C@H](C)CN(c2cccc4c(C(=O)O)cn(Cc5cccnc5)c24)C3=O)cc(C)c1Cl [Example 467, (R)-7-(7-Chloro-10-(3-(4-chloro-3,5-dimethylphenoxy)propyl)-4-methyl-1-oxo-6-(1,3,5-trimethyl-1H-pyrazol-4-yl)-3,4-dihydropyrazino[1,2-a]indol-2(1H)-yl)-1-(pyridin-3-ylmethyl)-1H-indole-3-carboxylic acid]
GI50 [1, 2]: 1300 nM | Ki (Mcl-1): 1.3 nM

COCCn1c(C(N)=O)cc2cccc(N3C[C@@H](C)n4c(c(CCCOc5cc(C)c(Cl)c(C)c5)c5ccc(Cl)c(-c6c(C)nn(C)c6C)c54)C3=O)c21 [Example 354, (R)-7-(7-Chloro-10-(3-(4-chloro-3,5-dimethylphenoxy)propyl)-4-methyl-1-oxo-6-(1,3,5-trimethyl-1H-pyrazol-4-yl)-3,4-dihydropyrazino[1,2-a]indol-2(1H)-yl)-1-(2-methoxyethyl)-1H-indole-2-carboxamide]
GI50 [1, 2]: 580 nM | Ki (Mcl-1): 4.3 nM
